Measurements: US20140213557A1, “Active Compound Combinations” (Bayer CropScience AG, priority 2005, published 2014)
Where “and” joins values, the source holds several entries; their conditions need not be identical. Identical values can stand only once.

Test system: Phakopsora pachyrhizi
Experiment: Phakopsora test (soya bean)
Assay type: in vivo
Settings: sprayed 1 day before inoculation, evaluation 11 days after inoculation
Procedure: The suitable active compound preparations used are commercial formulations which, if required, are diluted to the desired concentration prior to application.
Soya bean plants (cv. Miyagishirome) are cultivated in a plastic vessel having a diameter of 7.5 cm for 14 days, until they have reached the ⅔-leaf stage. The active compound preparations were, at the concentrations stated below, sprayed onto the test plants (6 ml for in each case 3 test vessels, the test solution contains 0.02% of Neoesterin as tackifier).
1 day after the application of the active compound preparation, the plants were sprayed with a urediniospore suspension (1×10^5 urediniospores/ml) of the rust pathogen Phakopsora pachyrhizi. The plants are then placed in a greenhouse at about 25° C. during the day and about 18° C. at night and a relative atmospheric humidity of 91.9%.
Evaluation is carried out 11 days after the inoculation by comparison of the infected areas of untreated and treated plants. 0% means an efficacy which corresponds to that of the control, whereas an efficacy of 100% means that no infection is observed.

| Structure (SMILES) | Efficacy in % found (application rate 0.5 ppm) | Efficacy in % found (application rate 5 ppm) [%] |
| --- | --- | --- |
| CC(C)(C)C(O)(CCc1ccc(Cl)cc1)Cn1cncn1 (centres unmarked) [(3-17) tebuconazole, tebuconazole] | 60% and 50% |  |
| CP(=O)(O)CCC(N)C(=O)O (centres unmarked) [(1-2) glufosinate, glufosinate] | 0% | 0 |
| O=C(O)CNCP(=O)(O)O [(1-1) glyphosate, glyphosate] | 0% | 0 |
